The results in this text go back to patent US20220380319A1 (Bial - R&D Investments, S.A., priority 2019, published 2022).

The term IC50 denotes the concentration that gives 50% inhibition. A higher IC50 goes with a need for much substance. Usually solubility stands for the concentration that dissolves in the medium under given conditions. Low readings indicate little dissolved substance, high ones much dissolved substance.

SMILES strings stand for the structures. Values after ≈ are worked out from the molar mass of the structure shown.

The target of one data set is T1, acid ceramidase (Homo sapiens, UniProt Q13510).
T1 construct: Cell lysates overexpressing acid ceramidase were used as the enzyme source; expressed in transfected cells
T1 sequence (Q13510 22-395): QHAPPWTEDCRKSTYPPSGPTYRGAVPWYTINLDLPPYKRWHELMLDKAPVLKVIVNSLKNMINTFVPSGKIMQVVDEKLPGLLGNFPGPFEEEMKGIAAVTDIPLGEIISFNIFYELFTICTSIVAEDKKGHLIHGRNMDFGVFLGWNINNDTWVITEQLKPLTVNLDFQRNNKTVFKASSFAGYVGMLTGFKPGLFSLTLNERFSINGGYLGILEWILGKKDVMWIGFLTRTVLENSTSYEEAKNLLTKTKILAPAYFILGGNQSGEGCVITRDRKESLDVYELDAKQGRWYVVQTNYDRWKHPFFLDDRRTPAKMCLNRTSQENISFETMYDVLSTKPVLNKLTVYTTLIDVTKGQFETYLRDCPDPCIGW
Briefly: Acid ceramidase inhibition, biochemical fluorescent assay with cell lysates overexpressing acid ceramidase, substrate Rbm14-12. The following applies: substrate Rbm14-12 6.3 μM. In short, it runs like this:
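Lysate of cells overexpressing acid ceramidase (10 μg protein) preincubated with compound dose series 1 hr at RT in 25 mM NaAC, 100 mM NaCl, pH 4.5, then reacted 1 hr with 6.3 μM Rbm14-12. Stopped with NaIO4/glycine buffer pH 10.6, fluorescence ex360/em446; IC50 by four-parameter fit.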

Another data set can be described thus: physchem. As to conditions: water.
Data set [1] can be described thus: Compound solubility in water.
Where [2] appears, read: pH 4.5, 1 hr preincubation at RT.

As to `CC(C)C#CCNC(=O)n1cnc2c(N3CC3C(F)(F)F)cccc21` (stereo not drawn) [Example 308, N-(4-Methylpent-2-yn-1-yl)-4-(2-(trifluoromethyl)-aziridin-1-yl)-1H-benzo[d]imidazole-1-carboxamide], the IC50 against acid ceramidase (pH 4.5) was under 200 nM. Moreover, in the data set “physchem”, the solubility was 1 µg/mL (≈ 2.85 µM).

For `O=C(NCCCc1ccccc1)n1cnc2c(N3CC3F)cccc21` (stereo not drawn) [Example 274, 4-(2-Fluoroaziridin-1-yl)-N-(3-phenylpropyl)-1H-benzo[d]imidazole-1-carboxamide], the IC50 at acid ceramidase (pH 4.5) was under 200 nM. This molecule also came in with a solubility in the data set “physchem” of 17 µg/mL (≈ 50.2 µM).

As to `CC(C)CCNC(=O)n1cnc2c(N3CC3C(F)(F)F)cccc21` (stereo not drawn) [Example 164, N-iso-Pentyl-4-(2-(trifluoromethyl)-aziridin-1-yl)-1H-benzo[d]imidazole-1-carboxamide], the IC50 on acid ceramidase (pH 4.5) is under 200 nM. The molecule also gave a solubility in the data set “physchem” of 2 µg/mL (≈ 5.88 µM).

On to `O=C(NCCCc1ccccc1)n1cnc2c(N3CC3C(F)(F)F)cccc21` (stereo not drawn) [Example 242, N-(3-phenylpropyl)-4-(2-(trifluoromethyl)aziridin-1-yl)-1H-benzo[d]imidazole-1-carboxamide], for which the IC50 at acid ceramidase (pH 4.5) is under 200 nM. The molecule further yielded a solubility in “physchem” of 1 µg/mL (≈ 2.57 µM).

`CN1C[C@@H]2C[C@H]1CN2c1cccc2c1ncn2C(=O)NCCCc1ccccc1` [Example 244, 4-((1S,4S)-5-Methyl-2,5-diazabicyclo[2.2.1]heptan-2-yl)-N-(3-phenylpropyl)-1H-benzo[d]imidazole-1-carboxamide] yielded an IC50 against acid ceramidase (pH 4.5) of under 200 nM. The same molecule yielded a solubility in data set [1] of 30 µg/mL (≈ 77 µM).

The molecule `CC(C)CNC(=O)n1cnc2cc(-c3cncnc3)ccc21` [Example 16a, N-iso-Butyl-5-(pyrimidin-5-yl)-1H-benzo[d]imidazole-1-carboxamide] came in with an IC50 at acid ceramidase (setting [2]) of under 200 nM. This molecule yielded a solubility in data set [1] of 4.2 µg/mL (≈ 14.2 µM).

Take `COc1nc2cc(N3CCOCC3)ccc2n1C(=O)NCCCCc1ccccc1` [Example 133b, 2-methoxy-5-morpholino-N-(4-phenylbutyl)-1H-benzo[d]imidazole-1-carboxamide]: the IC50 on acid ceramidase (setting [2]) was under 200 nM. This molecule showed a solubility in data set [1] of 2 µg/mL (≈ 4.9 µM).

Consider `O=C(NCCCc1ccccc1)n1cnc2c(N3CC4CNCC4C3)cccc21` (stereo not drawn) [Example 265, 4-(Hexahydropyrrolo[3,4-c]pyrrole-2(1H)-yl)-N-(3-phenylpropyl)-1H-benzo[d]imidazole-1-carboxamide], for which the IC50 on acid ceramidase (pH 4.5) is under 200 nM. The same molecule came in with a solubility in data set [1] of 27 µg/mL (≈ 69.3 µM).

`COc1cc2ncn(C(=O)NCCc3ccccc3)c2cc1N1CCOCC1` [Example 38a, 5-Methoxy-6-morpholino-N-phenethyl-1H-benzo[d]imidazole-1-carboxamide] had an IC50 against acid ceramidase (setting [2]) of under 200 nM. For the same molecule, the concentration in solution in data set [1] (solubility) came to 20.4 µg/mL (≈ 53.6 µM).

Regarding `COc1nc2cc(-c3cccnc3)cnc2n1C(=O)NCCCCc1ccccc1` [Example 122, 2-Methoxy-N-(4-phenylbutyl)-6-(pyridin-3-yl)-3H-imidazo[4,5-b]pyridine-3-carboxamide], on acid ceramidase (setting [2]), the IC50 was under 200 nM. For the same molecule, the solubility in data set [1] came out at 0.04 µg/mL (≈ 0.0996 µM).

With `O=C(NCCCc1ccccc1)n1cnc2c(N3CCC(F)(F)CC3)cccc21` [Example 248, 4-(4,4-Difluoropiperidin-1-yl)-N-(3-phenylpropyl)-1H-benzo[d]imidazole-1-carboxamide], the IC50 on acid ceramidase (pH 4.5) was under 200 nM. Besides, the concentration in solution in data set [1] (solubility) came to 1 µg/mL (≈ 2.51 µM).

Take `CN1CCC(c2cccc3c2ncn3C(=O)NCCCc2ccccc2)CC1` [Example 44, 4-(1-Methylpiperidin-4-yl)-N-(3-phenylpropyl)-1H-benzo[d]imidazole-1-carboxamide]: on acid ceramidase (setting [2]), the IC50 was under 200 nM. The concentration in solution in data set [1] (solubility) was 23.2 µg/mL (≈ 61.6 µM).

At acid ceramidase (pH 4.5), `COc1nc2ccc(N3CCOCC3)cc2n1C(=O)NCCC1CC1C(F)(F)F` (stereo not drawn) [Example 230a, 2-Methoxy-6-morpholino-N-(2-(2-(trifluoromethyl)cyclopropyl)ethyl)-1H-benzo[d]imidazole-1-carboxamide] yielded an IC50 of 200 to 1000 nM. For the same molecule, the concentration in solution in data set [1] (solubility) came to 26 µg/mL (≈ 63 µM).

On acid ceramidase (setting [2]), `O=C(NCCCc1ccccc1)n1cnc2ccccc21` [Example 5, N-(3-Phenylpropyl)-1H-benzo[d]imidazole-1-carboxamide] returned an IC50 of under 200 nM. Moreover, the solubility in data set [1] turned out to be 13.8 µg/mL (≈ 49.4 µM).

For `CCOc1nc2ccccc2n1C(=O)NCCc1ccccc1` [Example 36, 2-Ethoxy-N-phenethyl-1H-benzo[d]imidazole-1-carboxamide], the IC50 at acid ceramidase (setting [2]) was under 200 nM. This molecule also came in with a solubility in data set [1] of 8.4 µg/mL (≈ 27.2 µM).

For `CC(C)CCNC(=O)n1cnc2c(N3CCN(C4CN(C)C4)CC3)cccc21` [Example 204, N-iso-Pentyl-4-(4-(1-methylazetidin-3-yl)-piperazin-1-yl)-1H-benzo[d]imidazole-1-carboxamide], the IC50 against acid ceramidase (pH 4.5) lay within 200 to 1000 nM. In addition, the solubility in data set [1] was determined as 36 µg/mL (≈ 93.6 µM).

`CC(=O)N1CCN(c2cccc3c2ncn3C(=O)NCCCc2ccccc2)CC1` [Example 218, 4-(4-Acetylpiperazin-1-yl)-N-(3-phenylpropyl)-1H-benzo[d]imidazole-1-carboxamide] came in with an IC50 at acid ceramidase (pH 4.5) of under 200 nM. For the same molecule, the solubility in data set [1] was found to be 24 µg/mL (≈ 59.2 µM).

`CN1CCN(c2cccc3c2ncn3C(=O)NCCC2CCC(F)(F)C2)CC1` (stereo not drawn) [Example 258, N-(2-(3,3-Difluorocyclopentyl)ethyl)-4-(4-methylpiperazin-1-yl)-1H-benzo[d]imidazole-1-carboxamide] had an IC50 against acid ceramidase (pH 4.5) of under 200 nM. The concentration in solution in data set [1] (solubility) was 34 µg/mL (≈ 86.9 µM).

`COc1nc2cccnc2n1C(=O)NCCCCn1ccc(C(C)(C)C)n1` [Example 135a, N-(4-(3-(tert-Butyl)-1H-pyrazol-1-yl)butyl)-2-methoxy-3H-imidazo[4,5-b]pyridine-3-carboxamide] had an IC50 on acid ceramidase (setting [2]) of under 200 nM. This molecule gave a solubility in data set [1] of 15 µg/mL (≈ 40.5 µM).

The molecule `CC(C)C#CCNC(=O)n1cnc2c(N3CC4(CCN4C)C3)cccc21` [Example 359, 4-(1-Methyl-1,6-diazaspiro[3.3]heptan-6-yl)-N-(4-methylpent-2-yn-1-yl)-1H-benzo[d]imidazole-1-carboxamide] gave an IC50 at acid ceramidase (setting [2]) of 200 to 1000 nM. Besides, in data set [1], the solubility worked out at 23 µg/mL (≈ 65.4 µM).

On acid ceramidase (setting [2]), `COc1nc2ncccc2n1C(=O)NCCCCc1ccccc1` [Example 61, 2-Methoxy-N-(4-phenylbutyl)-1H-imidazo[4,5-b]pyridine-1-carboxamide] yielded an IC50 of under 200 nM. Also, the solubility in data set [1] stood at 1 µg/mL (≈ 3.08 µM).

`CC(C)CCNC(=O)n1cnc2c(N3CCN(CC4CC4)CC3)cccc21` [Example 152, 4-(4-(Cyclopropylmethyl)piperazin-1-yl)-N-iso-pentyl-1H-benzo[d]imidazole-1-carboxamide]: on acid ceramidase (setting [2]), the IC50 was in the range of 200 to 1000 nM. This molecule also gave a solubility in data set [1] of 20 µg/mL (≈ 54.1 µM).

At acid ceramidase (pH 4.5), `CN1CCN(c2cccc3c2ncn3C(=O)NCC#CCC2CC2)CC1` [Example 284] registered an IC50 of under 200 nM. Also, in data set [1], the solubility worked out at 30 µg/mL (≈ 85.4 µM).

At acid ceramidase (pH 4.5), `CC(C)C#CCNC(=O)n1cnc2c(N3CC(N4CCN(C)CC4)C3)cccc21` [Example 298, N-(4-Methylpent-2-ynyl)-4-(3-(4-methyl-piperazin-1-yl)azetidin-1-yl)-1H-benzo[d]imidazole-1-carboxamide] displayed a half-maximal inhibitory concentration (IC50) of under 200 nM. In data set [1], this molecule gave a solubility of 27 µg/mL (≈ 68.4 µM).
